Measurements as given in article PMC10005104 (Molecules, 2023).
Several values for one entry are separate records, joined by “and”; a condition that tells them apart may be missing. Identical values can stand only once. Entries after “also recorded” stand apart in the source; their conditions may differ. Counter-ions that a name gives are not always drawn. Like-named read-outs stand apart in the source and are kept apart here.

Legend:
mpBuChE = tested on: mpBuChE; design: method as in PMID 30822710; details: cited from earlier work
[1] = tested on: AChE extracted from mouse brains (mbAChE); design: method as in PMID 30822710; details: cited from earlier work
hH3R [2] = details: cited from earlier work
[3] = target: T1, AChE from electrophorus electricus (eeAChE) (Electrophorus electricus, UniProt O42275); details: cited from earlier work
T1 construct: purchased Sigma-Aldrich (Steinheim, Germany)

hH3R [4] = details: cited from earlier work; remark: listed apart in the source
[5] = target: T2, BuChE from equine serum (eqBuChE) (Equus caballus, UniProt P81908); details: cited from earlier work
T2 construct: BuChE from equine serum (eqBuChE); purchased Sigma-Aldrich (Steinheim, Germany); host or cells: equine serum

[6] = target: T1, AChE from electrophorus electricus (eeAChE); assay: modified Ellman colorimetric assay, eeAChE; assay type: biochemical; details: for IC50: three independent experiments, read-out: eeAChE IC50 Mean ± SEM
Protocol: All compounds were tested at a concentration of 10 µM in a modified colorimetric method first described by Ellman et al. in the 1960s, using AChE from electrophorus electricus (eeAChE) and BuChE from equine serum (eqBuChE). […]. All results are collected in Table 1. […]. […] No correlation was observed between inhibitory activity and hH3R affinity. The most interesting compounds were among the azepane derivatives. […]. AChE from electrophorus electricus and BuChE from equine serum were purchased from Sigma-Aldrich (Steinheim, Germany). The whole procedure was performed as previously described, using a modified Ellman method in 96-well microplates. Absorbance was measured using an EnSpire multimode microplate reader (PerkinElmer, Waltham, MA, USA) at 412 nm. Initial screening was performed for compounds at a concentration of […]. The percentage of inhibition was calculated by comparison with a blank sample (100% enzyme activity). For compounds showing >70% inhibition of enzyme activity, IC50 values were determined, measuring absorbance at six different inhibitor concentrations. Each concentration was measured in triplicate. IC50 values were calculated using GrapPad Prism 9 software (GraphPad Software, San Diego, CA, USA). Data are expressed as mean ± SEM.

SH-SY5Y cells = assay: MTS assay in SH-SY5Y cells; assay type: cell-based; details: Homo sapiens, SH-SY5Y; MTS assay, 24 h of exposure
Protocol: (§1) . After the indicated time, the MTS reagent was added directly to the cultured cells for 1 h, and then the absorbance at 490 nm was read. […] The results are presented in Table 2 and Figures S1 and S2 (Supplementary Materials).
(§2) The hepatoma cell line HepG2 (ATCC® HB-8065TM) and SH-SY5Y CRL-2266 neuroblastoma cell line were used to evaluate the toxicity of tested compounds. Tests were conducted as described previously. The CellTiter 96® Aqueous Non-Radioactive Cell Proliferation Assay was purchased from Promega (Madison, WI, USA). […]. […] Each experiment was performed twice, in triplicate.

[7] = MTS assay in SH-SY5Y cells; assay type: cell-based; details: human, SH-SY5Y neuroblastoma cells; at 50 µM, percentage of control (vehicle-treated cells); read-out: SH-SY5Y Cell Viability (%)
Protocol: as §1, §2

hMAO B = target: T3, hMAO B (Homo sapiens, UniProt P27338); assay: fluorometric Amplex red MAO assay; assay type: biochemical; details: at 1 µM; two independent experiments; read-out: hMAO B % inh
T3 construct: purchased Sigma-Aldrich (Steinheim, Germany)
T3 sequence (P27338 1-520): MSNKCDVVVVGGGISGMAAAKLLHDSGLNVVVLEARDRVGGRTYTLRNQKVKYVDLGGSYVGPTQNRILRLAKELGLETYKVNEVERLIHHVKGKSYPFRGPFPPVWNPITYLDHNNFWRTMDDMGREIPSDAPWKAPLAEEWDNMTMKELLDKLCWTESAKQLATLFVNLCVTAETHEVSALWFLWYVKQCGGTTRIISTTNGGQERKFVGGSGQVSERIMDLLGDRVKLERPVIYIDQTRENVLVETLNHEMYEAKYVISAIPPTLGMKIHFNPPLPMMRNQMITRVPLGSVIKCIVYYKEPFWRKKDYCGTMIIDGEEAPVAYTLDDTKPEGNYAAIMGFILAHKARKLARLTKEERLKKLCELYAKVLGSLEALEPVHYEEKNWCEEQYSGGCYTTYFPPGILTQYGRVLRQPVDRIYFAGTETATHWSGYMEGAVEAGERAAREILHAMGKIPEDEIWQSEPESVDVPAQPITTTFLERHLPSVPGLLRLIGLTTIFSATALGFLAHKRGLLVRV
Protocol: The ability to inhibit MAO B was estimated by a fluorescence assay, as previously described.
The enzyme was purchased from Sigma-Aldrich (Steinheim, Germany). Screening was carried out at a concentration of 1 micromolar. Inhibitor activity was measured in the presence of p-tyramine.
Data are expressed as mean values of two independent experiments.

[8] = target: T2, BuChE from equine serum (eqBuChE); assay: biochemical; details: three independent experiments; read-out: eqBuChE IC50 Mean ± SEM
Protocol: AChE from electrophorus electricus and BuChE from equine serum were purchased from Sigma-Aldrich (Steinheim, Germany). The whole procedure was performed as previously described, using a modified Ellman method in 96-well microplates. […] Initial screening was performed for compounds at a concentration of […]. The percentage of inhibition was calculated by comparison with a blank sample (100% enzyme activity). […] Each concentration was measured in triplicate. IC50 values were calculated using GrapPad Prism 9 software (GraphPad Software, San Diego, CA, USA). Data are expressed as mean ± SEM.

human H3 receptor (hH3R) = target: T4, human H3 receptor (hH3R) (Homo sapiens, UniProt Q9Y5N1); assay: [3H]-Nα-methylhistamine radioligand binding assay, HEK293 cell membranes expressing hH3R; details: hH3R Ki Mean [CI 95%], HEK293 cells expressing human H3 receptor; at least three independent repetitions
T4 construct: expressed in transfected cells; host or cells: HEK293
Protocol: The affinity for hH3R was assessed in vitro in radioligand binding assays, using membrane preparations of HEK293 cells stably expressing hH3R, while [^3H]-N^α-methylhistamine was used as a radioligand. The exact procedure was described previously by Kottke et al.. Novel compounds were tested as oxalic acid salts. […]. The activity depended on all three variables, i.e., the presence of an amine group, the chain length (five or six carbons), and the type of substituent in the phenyl ring. With regard to the change in the amine moiety, it can be observed that, regardless of the length of the chain and the type of R substituent, the activity of the derivatives was arranged in the following order: 3-methylpiperidine ≥ piperidine ≥ azepane >> 4-metylpiperidine derivatives. Regarding the length of the carbon chain, compounds bearing the pentylene chain are characterized by a higher binding affinity to the receptor than hexylene derivatives (exception: 10). […]
H3R receptor affinity assays were performed in the radioligand competition assay. Human H3R was stably expressed in HEK293 cells. [^3H]-N^α-Methylhistamine (KD = 3.08 nM) was used as the radioligand. The compounds used in the experiments were dissolved in DMSO. The precise experiment was performed as previously described. Complete curves were obtained for at least seven approximate concentrations, in at least three independent experiments, performed at least in duplicate. Ki values were calculated using the Cheng–Prusoff equation. Results are presented as mean values with confidence intervals (CI) (95%).

eeAChE = target: T5, eeAChE (Electrophorus electricus, UniProt O42275); assay: kinetic study of eeAChE inhibition (Lineweaver-Burk, Cornish-Bowden plots); assay type: biochemical; details: substrate acetylthiocholine
T5 construct: purchased Sigma-Aldrich (Steinheim, Germany)
Protocol: […]. The Michaelis–Menten equation was used to calculate the maximum velocity (Vmax) and the Michaelis constant (Km).
(§3) The type of line intersection and the location of this intersection confirms the mixed type of inhibition.
(§4) Studies were performed with compounds 16 and 17 using a method as described previously. Vmax and Km values of the Michaelis–Menten kinetics were calculated by nonlinear regression from substrate–velocity curves. Lineweaver–Burk and Cornish–Bowden plots were calculated using linear regression in GraphPad Prism 9 software (GraphPad Software, San Diego, CA, USA). Each experiment was performed in triplicate.

HepG2 and SH-SY5Y cells = assay: MTS assay, statements on both cell lines together; assay type: cell-based, human; details: HepG2 or SH-SY5Y cells; up to 50 µM
[9] = MTS assay, statements on both cell lines together; assay type: cell-based, human; details: human, HepG2 hepatoma cells and SH-SY5Y neuroblastoma cells; HepG2 48 h, SH-SY5Y 24 h; up to 50 µM; read-out: cell viability at the highest doses tested
HepG2 cells = assay: MTS assay in HepG2 cells; assay type: cell-based; details: Homo sapiens, HepG2; MTS assay, 48 h of exposure
Protocol: as §1, §2

MTS assay in HepG2 cells = assay type: cell-based; details: human, HepG2 hepatoma cells; at 50 µM, percentage of control (vehicle-treated cells); read-out: HepG2 Cell Viability (%)
Protocol: as §1, §2

eqBuChE = target: T6, eqBuChE (Equus caballus, UniProt P81908); assay: kinetic study of eqBuChE inhibition (Lineweaver-Burk, Cornish-Bowden plots); assay type: biochemical, equine; details: substrate butyrylthiocholine
T6 construct: BuChE from equine serum (eqBuChE); purchased Sigma-Aldrich (Steinheim, Germany); host or cells: equine serum
Protocol: The Michaelis–Menten equation was used to calculate the maximum velocity (Vmax) and the Michaelis constant (Km).
as §3, §4

T4 sequence (Q9Y5N1 whole entry): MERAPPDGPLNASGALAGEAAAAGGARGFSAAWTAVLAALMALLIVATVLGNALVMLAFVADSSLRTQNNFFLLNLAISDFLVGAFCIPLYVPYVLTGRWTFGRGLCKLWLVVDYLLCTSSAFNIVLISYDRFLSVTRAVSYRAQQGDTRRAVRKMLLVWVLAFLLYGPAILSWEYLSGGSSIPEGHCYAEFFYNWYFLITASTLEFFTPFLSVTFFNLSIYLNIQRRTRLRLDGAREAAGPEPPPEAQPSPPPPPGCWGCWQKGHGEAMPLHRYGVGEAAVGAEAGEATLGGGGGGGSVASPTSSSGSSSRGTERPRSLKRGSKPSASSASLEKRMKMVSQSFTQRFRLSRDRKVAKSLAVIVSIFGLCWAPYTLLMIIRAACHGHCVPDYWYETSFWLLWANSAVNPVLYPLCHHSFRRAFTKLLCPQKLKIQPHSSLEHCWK
T1 sequence (O42275 24-633): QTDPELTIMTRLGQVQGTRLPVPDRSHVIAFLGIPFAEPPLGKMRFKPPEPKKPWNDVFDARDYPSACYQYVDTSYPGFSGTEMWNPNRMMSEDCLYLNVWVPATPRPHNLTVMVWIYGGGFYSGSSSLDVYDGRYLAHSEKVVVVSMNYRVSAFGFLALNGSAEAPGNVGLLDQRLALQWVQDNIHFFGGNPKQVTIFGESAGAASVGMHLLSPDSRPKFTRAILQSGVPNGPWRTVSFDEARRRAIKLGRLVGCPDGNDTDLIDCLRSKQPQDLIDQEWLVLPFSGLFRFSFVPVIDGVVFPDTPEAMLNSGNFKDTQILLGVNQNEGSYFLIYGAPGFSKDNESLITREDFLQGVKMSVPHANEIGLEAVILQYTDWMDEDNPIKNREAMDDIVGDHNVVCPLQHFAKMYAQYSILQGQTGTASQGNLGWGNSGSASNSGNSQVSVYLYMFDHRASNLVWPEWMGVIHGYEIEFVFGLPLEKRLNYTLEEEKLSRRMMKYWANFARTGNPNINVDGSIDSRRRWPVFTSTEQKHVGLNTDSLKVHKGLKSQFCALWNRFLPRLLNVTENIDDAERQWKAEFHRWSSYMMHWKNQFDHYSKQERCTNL
T2 sequence (P81908 whole entry): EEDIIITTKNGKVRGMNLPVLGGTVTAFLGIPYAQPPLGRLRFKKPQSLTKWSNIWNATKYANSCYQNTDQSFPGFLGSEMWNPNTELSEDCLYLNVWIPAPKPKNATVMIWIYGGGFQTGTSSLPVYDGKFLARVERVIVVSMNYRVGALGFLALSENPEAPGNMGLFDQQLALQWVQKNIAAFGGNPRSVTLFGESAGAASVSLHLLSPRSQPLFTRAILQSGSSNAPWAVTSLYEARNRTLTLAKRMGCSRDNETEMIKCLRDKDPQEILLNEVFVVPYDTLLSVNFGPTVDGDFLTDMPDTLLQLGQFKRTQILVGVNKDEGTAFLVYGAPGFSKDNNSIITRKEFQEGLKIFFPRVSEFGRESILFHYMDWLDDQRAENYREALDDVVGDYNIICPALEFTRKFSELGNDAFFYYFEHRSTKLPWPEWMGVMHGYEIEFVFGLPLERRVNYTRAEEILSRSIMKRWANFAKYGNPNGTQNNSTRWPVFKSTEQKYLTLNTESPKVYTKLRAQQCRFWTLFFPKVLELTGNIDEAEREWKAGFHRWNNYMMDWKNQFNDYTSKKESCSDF
T5 sequence (O42275 24-633): as the sequence (O42275 24-633) above
T6 sequence (P81908 whole entry): as the sequence (P81908 whole entry) above

Row | SMILES | IC50 [3] | Ki (hH3R [4]) | IC50 [5] | IC50 [6] | IC50 (SH-SY5Y cells) | viability at 24 h, 50 µM [7] | inhibition at 1 µM (hMAO B) | IC50 [8] | Ki (human H3 receptor (hH3R)) | viability at 50 µM [9] | IC50 (HepG2 cells) | viability at 48 h, 50 µM (MTS assay in HepG2 cells) | further results
1 | CCN(C)CCCCOc1ccc2c(=O)c(-c3ccc(OCCN4CCCCC4)cc3)coc2c1 [II] |  |  |  |  |  |  |  |  |  |  |  |  | IC50 (mpBuChE): 2890 nM; IC50 [1]: 80 nM; IC50 (hH3R [2]): 270 nM
2 | C=CCN1CCN(CC2Cc3cc(C(C)(C)C)ccc3O2)CC1 (stereo not shown) [VI] | 19100 nM | 16 nM | 13200 nM |  |  |  |  |  |  |  |  |  | 
3 | N#Cc1ccc(-c2ccc(OCCCN3CCCCCC3)cc2)cc1 [V] | 2630 nM | 9 nM | 1300 nM |  |  |  |  |  |  |  |  |  | 
4 | CCC(=O)c1ccc(OCCCCCCN2CCCCCC2)cc1.O=C(O)C(=O)O [Compound 17, 1-(4-((6-(Azepan-1-yl)hexyl)oxy)phenyl)propan-1-one hydrogen oxalate] |  |  |  | 1060 ± 30 nM | 111000 nM | 70.3 ± 4.46% | 5% | 2860 ± 30 nM | < 50 nM and 42 nM | > 50% | 60000 nM | 58 ± 3.54% | type of eeAChE inhibition (eeAChE): non-competitive (mixed); also recorded: mixed; cell toxicity (HepG2 and SH-SY5Y cells): lack of cell toxicity
5 | CN1CCN(CCCN(C)C(=O)c2cc3ccc(Cl)cc3[nH]2)CC1 [I] | 9090 nM |  | 21100 nM |  |  |  |  |  |  |  |  |  | EC50 (hH3R [2]): 730 nM
6 | O=C(c1ccccc1)c1ccc(OCCCCCN2CCCCCC2)cc1 [lead 2] | 4630 nM | 40 nM | 680 nM |  |  |  |  |  |  |  |  |  | 
7 | CCC(=O)c1ccc(OCCCCCN2CCCCCC2)cc1.O=C(O)C(=O)O [Compound 16, 1-(4-((5-(Azepan-1-yl)pentyl)oxy)phenyl)propan-1-one hydrogen oxalate] |  |  |  | 3600 ± 120 nM | 357000 nM | 90.3 ± 5.32% | 6% | 550 ± 20 nM | < 50 nM and 30 nM | > 50% | 92000 nM | 67.7 ± 1.14% | type of eqBuChE inhibition (eqBuChE): mixed; cell toxicity (HepG2 and SH-SY5Y cells): lack of cell toxicity
8 | CCC(=O)c1ccc(OCCCCCN2CCCC(C)C2)cc1 (stereo not shown) [Compound 8, 1-(4-((5-(3-Methylpiperidin-1-yl)pentyl)oxy)phenyl)propan-1-one hydrogen oxalate] |  |  |  | 2100 ± 60 nM | 349000 nM | 90.7 ± 1.5% | 19% | 1750 ± 50 nM | 12 nM | > 50% | 142000 nM | 70.9 ± 2.92% | 
9 | CCC(=O)c1ccc(OCCCCCN2CCC(C)CC2)cc1 [Compound 12, 1-(4-((5-(4-Methylpiperidin-1-yl)pentyl)oxy)phenyl)propan-1-one hydrogen oxalate] |  |  |  |  | 421000 nM | 90.7 ± 12.9% | 0% | 1290 ± 80 nM | 57 nM | > 50% | 149000 nM | 77.2 ± 4.14% | inhibition at 10 µM ([6]; at 10 µM, read-out: eeAChE % inh): 58%
